Biological target: human F508del-CFTR (Homo sapiens, UniProt P13569, DEL508-508)
Experiment: F508del-CFTR cell surface expression (corrector activity), DiscoveRx ß-galactosidase complementation chemiluminescence assay in recombinant U2OS cell line;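 note: U2OS cells co-expressing ProLink-tagged F508del-CFTR and a membrane-anchored enzyme acceptor, where more surface CFTR restores β-galactosidase activity measured by chemiluminescence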
Conditions: for EC50: EC50, F508del-CFTR cell surface expression, geomean values; for Emax: U2OS, arithmetic mean values
[1] = U2OS cell line, 16h compound incubation
[2] = in relation to the Emax of the corrector lumacaftor (=100%), U2OS cell line, 16h compound incubation
[3] = U2OS cells, 16h compound incubation
[4] = in relation to Emax of corrector lumacaftor (=100%)

Sequence of human F508del-CFTR (P13569 with tags, fused parts or gaps DEL508-508): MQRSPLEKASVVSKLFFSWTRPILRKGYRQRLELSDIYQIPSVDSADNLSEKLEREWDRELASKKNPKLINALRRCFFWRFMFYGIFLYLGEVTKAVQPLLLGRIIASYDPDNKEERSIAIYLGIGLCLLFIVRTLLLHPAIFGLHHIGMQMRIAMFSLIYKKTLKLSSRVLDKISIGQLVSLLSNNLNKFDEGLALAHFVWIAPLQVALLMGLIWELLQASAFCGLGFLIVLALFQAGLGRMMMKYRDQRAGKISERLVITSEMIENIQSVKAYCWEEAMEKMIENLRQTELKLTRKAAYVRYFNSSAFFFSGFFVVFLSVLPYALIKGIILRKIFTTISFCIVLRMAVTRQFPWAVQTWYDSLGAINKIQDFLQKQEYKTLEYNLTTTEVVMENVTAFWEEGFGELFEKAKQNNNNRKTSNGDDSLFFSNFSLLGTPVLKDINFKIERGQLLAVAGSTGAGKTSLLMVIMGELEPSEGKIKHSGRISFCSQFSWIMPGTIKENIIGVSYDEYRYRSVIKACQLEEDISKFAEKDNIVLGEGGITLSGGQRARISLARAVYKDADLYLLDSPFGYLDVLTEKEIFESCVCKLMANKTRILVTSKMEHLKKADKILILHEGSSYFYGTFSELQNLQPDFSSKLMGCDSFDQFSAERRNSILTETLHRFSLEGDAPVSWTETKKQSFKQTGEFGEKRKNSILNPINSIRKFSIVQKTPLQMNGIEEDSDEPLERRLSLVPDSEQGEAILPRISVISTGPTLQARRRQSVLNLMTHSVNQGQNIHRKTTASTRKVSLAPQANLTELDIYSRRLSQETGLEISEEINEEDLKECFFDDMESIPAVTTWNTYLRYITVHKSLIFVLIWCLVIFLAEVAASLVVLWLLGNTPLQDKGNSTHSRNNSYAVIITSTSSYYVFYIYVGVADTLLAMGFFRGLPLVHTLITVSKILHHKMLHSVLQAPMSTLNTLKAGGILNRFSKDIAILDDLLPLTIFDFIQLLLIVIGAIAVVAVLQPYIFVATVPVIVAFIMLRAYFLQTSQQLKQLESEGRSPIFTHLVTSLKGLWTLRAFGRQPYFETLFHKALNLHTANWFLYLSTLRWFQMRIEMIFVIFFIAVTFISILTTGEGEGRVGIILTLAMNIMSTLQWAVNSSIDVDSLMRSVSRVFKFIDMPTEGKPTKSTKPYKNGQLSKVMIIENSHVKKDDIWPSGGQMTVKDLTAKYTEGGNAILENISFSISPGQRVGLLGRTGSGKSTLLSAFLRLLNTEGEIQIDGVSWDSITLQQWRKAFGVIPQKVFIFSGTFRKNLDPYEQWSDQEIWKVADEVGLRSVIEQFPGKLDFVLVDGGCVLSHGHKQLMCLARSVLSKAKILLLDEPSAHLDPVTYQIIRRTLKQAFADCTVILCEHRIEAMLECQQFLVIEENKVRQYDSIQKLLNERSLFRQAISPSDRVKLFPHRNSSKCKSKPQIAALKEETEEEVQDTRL

`COCCCN1C(=O)[C@H](CC(C)C)N(C)C(=O)C[C@@H](C(=O)NCCc2cccc(OC)c2)NC(=O)c2c(ccc3ccccc23)OC[C@@H](Cc2ccccc2)NC(=O)C12CC2` [Example 396, (3′S,7′S,13′R)-13′-benzyl-7′-isobutyl-N-(3-methoxyphenethyl)-9′-(3-methoxypropyl)-6′-methyl-1′,5′,8′,11′-tetraoxo-2′,3′,4′,5′,6′,7′,8′,9′,11′,12′,13′,14′-dodecahydro-1′H-spiro[cyclopropane-1,10′-naphtho[1,2-p][1]oxa[4,7,10,14]tetraazacycloheptadecine]-3′-carboxamide] showed an EC50 [1] of 0.241 µM and an Emax [2] of 190%.
`CCOc1cccc(CCNC(=O)[C@@H]2CC(=O)N(C)[C@@H](CC(C)C)C(=O)N3CCOC[C@@H]3C(=O)N[C@H](Cc3ccccc3)COc3ccc4ccccc4c3C(=O)N2)c1` [Example 397, (4aR,7R,18S,22S)-7-benzyl-N-(3-ethoxyphenethyl)-22-isobutyl-21-methyl-5,16,20,23-tetraoxo-1,2,4,4a,5,6,7,8,16,17,18,19,20,21,22,23-hexadecahydronaphtho[1,2-p][1,4]oxazino[3,4-f][1]oxa[4,7,10,14]tetraazacycloheptadecine-18-carboxamide] was tested, and the EC50 [1] was 0.262 µM and the Emax [2] was 207%.
`CC(C)C[C@H]1C(=O)N2CCN(C3CC3)C[C@@H]2C(=O)N[C@H](Cc2ccccc2)COc2cnc3ccccc3c2C(=O)N[C@H](C(=O)NCCc2cccc(OC(F)F)c2)CC(=O)N1C` [Example 398, (9S,13S,19aR,22R)-22-benzyl-18-cyclopropyl-N-(3-(difluoromethoxy)phenethyl)-13-isobutyl-12-methyl-7,11,14,20-tetraoxo-7,8,9,10,11,12,13,14,17,18,19,19a,20,21,22,23-hexadecahydro-16H-pyrazino[2′,11:6,7][1]oxa[4,7,10,14]tetraazacycloheptadecino[17,16-c]quinoline-9-carboxamide] was tested, and the EC50 [3] was 0.125 µM and the Emax [4] was 280%.
For `CC(C)C[C@H]1C(=O)N2CCN(C3CC3)C[C@H]2C(=O)N[C@H](Cc2ccccc2)COc2cnc3ccccc3c2C(=O)N[C@H](C(=O)NCCc2cccc(OC(F)F)c2)CC(=O)N1C` [Example 399, (9S,13S,19aS,22R)-22-benzyl-18-cyclopropyl-N-(3-(difluoromethoxy)phenethyl)-13-isobutyl-12-methyl-7,11,14,20-tetraoxo-7,8,9,10,11,12,13,14,17,18,19,19a,20,21,22,23-hexadecahydro-16H-pyrazino[2′,1′:6,7][1]oxa[4,7,10,14]tetraazacycloheptadecino[17,16-c]quinoline-9-carboxamide], the EC50 [3] was 0.506 µM and the Emax [4] was 146%.
In the case of `CCOc1cccc(CCNC(=O)[C@@H]2CC(=O)N(C)[C@@H](CC(C)C)C(=O)N3CCN(C4CC4)C[C@@H]3C(=O)N[C@H](Cc3ccccc3)COc3cnc4ccccc4c3C(=O)N2)c1` [Example 400, (9S,13S,19aR,22R)-22-benzyl-18-cyclopropyl-N-(3-ethoxyphenethyl)-13-isobutyl-12-methyl-7,11,14,20-tetraoxo-7,8,9,10,11,12,13,14,17,18,19,19a,20,21,22,23-hexadecahydro-16H-pyrazino[2′,11:6,7][1]oxa[4,7,10,14]tetraazacycloheptadecino[17,16-c]quinoline-9-carboxamide], the EC50 [3] is reported as 0.164 µM and the Emax [4] is reported as 292%.
Work on `CCOc1cccc(CCNC(=O)[C@@H]2CC(=O)N(C)[C@@H](CC(C)C)C(=O)N3CCN(C4CC4)C[C@H]3C(=O)N[C@H](Cc3ccccc3)COc3cnc4ccccc4c3C(=O)N2)c1` [Example 401, (9S,13S,19aS,22R)-22-benzyl-18-cyclopropyl-N-(3-ethoxyphenethyl)-13-isobutyl-12-methyl-7,11,14,20-tetraoxo-7,8,9,10,11,12,13,14,17,18,19,19a,20,21,22,23-hexadecahydro-16H-pyrazino[2′,1′:6,7][1]oxa[4,7,10,14]tetraazacycloheptadecino[17,16-c]quinoline-9-carboxamide] yielded an EC50 [3] of 0.559 µM and an Emax [4] of 189%.
For `Cc1cc(CCNC(=O)[C@@H]2CC(=O)N(C)[C@@H](CC(C)C)C(=O)N3CCN(C4CC4)C[C@@H]3C(=O)N[C@H](Cc3ccccc3)COc3cnc4ccccc4c3C(=O)N2)on1` [Example 402, (9S,13S,19aR,22R)-22-benzyl-18-cyclopropyl-13-isobutyl-12-methyl-N-(2-(3-methylisoxazol-5-yl)ethyl)-7,11,14,20-tetraoxo-7,8,9,10,11,12,13,14,17,18,19,19a,20,21,22,23-hexadecahydro-16H-pyrazino[2′,11:6,7][1]oxa[4,7,10,14]tetraazacycloheptadecino[17,16-c]quinoline-9-carboxamide], the EC50 [3] was 0.305 µM and the Emax [4] was 314%.
Molecule `Cc1cc(CCNC(=O)[C@@H]2CC(=O)N(C)[C@@H](CC(C)C)C(=O)N3CCN(C4CC4)C[C@H]3C(=O)N[C@H](Cc3ccccc3)COc3cnc4ccccc4c3C(=O)N2)on1` [Example 403, (9S,13S,19aS,22R)-22-benzyl-18-cyclopropyl-13-isobutyl-12-methyl-N-(2-(3-methylisoxazol-5-yl)ethyl)-7,11,14,20-tetraoxo-7,8,9,10,11,12,13,14,17,18,19,19a,20,21,22,23-hexadecahydro-16H-pyrazino[2′,11:6,7][1]oxa[4,7,10,14]tetraazacycloheptadecino[17,16-c]quinoline-9-carboxamide] has an EC50 [3] of 0.55 µM and an Emax [4] of 179%.
Work on `CC(C)C[C@H]1C(=O)N2CCN(C3CC3)C[C@@H]2C(=O)N[C@H](Cc2ccccc2)COc2cnc3ccccc3c2C(=O)N[C@H](C(=O)NCCc2nc3c(s2)CCC3)CC(=O)N1C` [Example 404, (9S,13S,19aR,22R)-22-benzyl-18-cyclopropyl-N-(2-(5,6-dihydro-4H-cyclopenta[d]thiazol-2-yl)ethyl)-13-isobutyl-12-methyl-7,11,14,20-tetraoxo-7,8,9,10,11,12,13,14,17,18,19,19a,20,21,22,23-hexadecahydro-16H-pyrazino[2′,11:6,7][1]oxa[4,7,10,14]tetraazacycloheptadecino[17,16-c]quinoline-9-carboxamide] yielded an EC50 [3] of 0.157 µM and an Emax [4] of 254%.
`CC(C)C[C@H]1C(=O)N2CCN(C3CC3)C[C@H]2C(=O)N[C@H](Cc2ccccc2)COc2cnc3ccccc3c2C(=O)N[C@H](C(=O)NCCc2nc3c(s2)CCC3)CC(=O)N1C` [Example 405, (9S,13S,19aS,22R)-22-benzyl-18-cyclopropyl-N-(2-(5,6-dihydro-4H-cyclopenta[d]thiazol-2-yl)ethyl)-13-isobutyl-12-methyl-7,11,14,20-tetraoxo-7,8,9,10,11,12,13,14,17,18,19,19a,20,21,22,23-hexadecahydro-16H-pyrazino[2′,1′:6,7][1]oxa[4,7,10,14]tetraazacycloheptadecino[17,16-c]quinoline-9-carboxamide] gave an EC50 [3] of 0.343 µM and an Emax [4] of 171%.
`COc1cccc(CCNC(=O)[C@@H]2CC(=O)N(C)[C@@H](CC(C)C)C(=O)N3CCCC[C@@H]3C(=O)N[C@H](Cc3ccccc3)COc3cc4oc(C)nc4cc3C(=O)N2)c1` [Example 406, (7S,11S,21R,23aR)-21-benzyl-7-isobutyl-N-(3-methoxyphenethyl)-8,16-dimethyl-6,9,13,23-tetraoxo-1,3,4,6,7,8,9,10,11,12,13,20,21,22,23,23a-hexadecahydro-2H-oxazolo[5′,4′:4,5]benzo[1,2-p]pyrido[2,1-f][1]oxa[4,7,10,14]tetraazacycloheptadecine-11-carboxamide] gave an EC50 [3] of 0.409 µM and an Emax [4] of 173%.
For `COc1cccc(CCNC(=O)[C@@H]2CC(=O)N(C)[C@@H](CC(C)C)C(=O)N3CCOC[C@@H]3C(=O)N[C@H](Cc3ccccc3)COc3cc4oc(C)nc4cc3C(=O)N2)c1` [Example 407], the EC50 [3] was 0.684 µM and the Emax [4] was 123%.
Work on `CC(C)C[C@H]1C(=O)N(C)CC(=O)N[C@H](Cc2ccccc2)COc2ccc3c(c2C(=O)N[C@H](C(=O)NCCc2ccc4c(c2)OCO4)CC(=O)N1C)OC(F)(F)O3` [Example 408, (8R,14S,18S)-N-(2-(benzo[d][1,3]dioxol-5-yl)ethyl)-8-benzyl-2,2-difluoro-14-isobutyl-12,15-dimethyl-10,13,16,20-tetraoxo-7,8,9,10,11,12,13,14,15,16,17,18,19,20-tetradecahydro-[1,3]dioxolo[4′,5′:5,6]benzo[1,2-p][1]oxa[4,7,10,14]tetraazacycloheptadecine-18-carboxamide] yielded an EC50 [3] of 0.241 µM and an Emax [4] of 134%.
For `COc1cccc(CCNC(=O)[C@@H]2CC(=O)N(C)[C@@H](CC(C)C)C(=O)N(C)CC(=O)N[C@H](Cc3ccccc3)COc3ccc4c(c3C(=O)N2)OC(F)(F)O4)c1` [Example 409, (8R,14S,18S)-8-benzyl-2,2-difluoro-14-isobutyl-N-(3-methoxyphenethyl)-12,15-dimethyl-10,13,16,20-tetraoxo-7,8,9,10,11,12,13,14,15,16,17,18,19,20-tetradecahydro-[1,3]dioxolo[4′,5′:5,6]benzo[1,2-p][1]oxa[4,7,10,14]tetraazacycloheptadecine-18-carboxamide], the EC50 [3] was 0.214 µM and the Emax [4] was 144%.
Work on `Cc1cc(CCNC(=O)[C@@H]2CC(=O)N(C)[C@@H](CC(C)C)C(=O)N(CCC3CCCCC3)CC(=O)N[C@H](Cc3ccccc3)COc3ccc4nc(C)oc4c3C(=O)N2)on1` [Example 410, (8R,14S,18S)-8-benzyl-12-(2-cyclohexylethyl)-14-isobutyl-2,15-dimethyl-N-(2-(3-methylisoxazol-5-yl)ethyl)-10,13,16,20-tetraoxo-7,8,9,10,11,12,13,14,15,16,17,18,19,20-tetradecahydrooxazolo[4′,5′:5,6]benzo[1,2-p][1]oxa[4,7,10,14]tetraazacycloheptadecine-18-carboxamide] yielded an EC50 [3] of 0.129 µM and an Emax [4] of 269%.

From patent US20240208992A1, “MACROCYCLES AS CFTR MODULATORS” (Idorsia Pharmaceuticals Ltd, priority 2021, published 2024)
